# Data taken from ChEMBL document CHEMBL4483862, “Open-source discovery of chemical leads for next-generation chemoprotective antimalarials” (2018).
# Test system: Plasmodium berghei
# Experiment: Luciferase/luciferin-expressing antifolate-resistant parasites were used to infect a culture of HepG2 cells that were pre-incubated with compounds. Infected hepatocytes emit light due to the luciferase reaction. Assay results are presented as the percent inhibition of light emission compared to control. […]
# Format: functional
# Conditions: sporozoite; for IC90: read-out: LUCIFERASE INFECTION ASSAY - IC90
structure (smiles),measurement,setting,value
C=CCn1c(C)cc(C(=O)CSc2nc3ccccc3o2)c1C,IC50,"HEPG2TOX_HILL_SLOPE 2.02, HEPG2TOX_R_SQUARED 0.572, PBLUC_HILL_SLOPE 43.7, PBLUC_R_SQUARED 0.493, read-out: LUCIFERASE INFECTION ASSAY - IC50",0.123 µM
same,IC90,,0.129 µM
Nc1nccc(/C=C/c2c(F)cccc2Cl)n1,IC50,"HEPG2TOX_HILL_SLOPE 2, HEPG2TOX_R_SQUARED 0.972, PBLUC_HILL_SLOPE 2.11, PBLUC_R_SQUARED 0.172, read-out: LUCIFERASE INFECTION ASSAY - IC50",8.94 µM
same,IC90,,> 13.2 µM
COc1ccc2[nH]c3c(NCCC4=CCCCC4)ncnc3c2c1,IC50,"HEPG2TOX_HILL_SLOPE 2.01, HEPG2TOX_R_SQUARED 0.344, PBLUC_HILL_SLOPE 1.69, PBLUC_R_SQUARED 0.738, read-out: LUCIFERASE INFECTION ASSAY - IC50",1.42 µM
same,IC90,,5.19 µM
Cc1ccc(C)c(C(=O)C(C)Sc2nnc(-c3cccc(Br)c3)o2)c1 (configuration not stated),IC50,"HEPG2TOX_HILL_SLOPE 2.02, HEPG2TOX_R_SQUARED 0.871, PBLUC_HILL_SLOPE 4.17, 0.287, PBLUC_R_SQUARED 0.527, 0.262, read-out: LUCIFERASE INFECTION ASSAY - IC50",4.21 µM
same,IC90,,9.4 µM
O=C(Nc1cccc(F)c1)Nc1ccc2nc(Cc3ccccc3)nn2c1,IC50,"HEPG2TOX_HILL_SLOPE 1.95, HEPG2TOX_R_SQUARED 0.988, PBLUC_HILL_SLOPE 12.2, PBLUC_R_SQUARED 0.455, read-out: LUCIFERASE INFECTION ASSAY - IC50",1.12 µM
same,IC90,,1.35 µM
Cc1ccc(C(=O)COC(=O)Cc2n[nH]c(=O)c3ccccc23)s1,IC50,"HEPG2TOX_HILL_SLOPE 1.97, HEPG2TOX_R_SQUARED 0.94, PBLUC_HILL_SLOPE 2.28, PBLUC_R_SQUARED 0.564, read-out: LUCIFERASE INFECTION ASSAY - IC50",3.44 µM
same,IC90,,9 µM
Cc1cccc(C(=O)Nc2nc3ccccn3c2C(=O)NC2CCCCC2)c1,IC50,"HEPG2TOX_HILL_SLOPE 2.01, HEPG2TOX_R_SQUARED 0.621, PBLUC_HILL_SLOPE 5.25, PBLUC_R_SQUARED 0.58, read-out: LUCIFERASE INFECTION ASSAY - IC50",1.91 µM
same,IC90,,2.91 µM
COc1ccc(-c2nnc(NC(=O)c3ccc(C)c(S(=O)(=O)N4CCCCC4)c3)[nH]2)cc1,IC50,"HEPG2TOX_HILL_SLOPE 2.01, HEPG2TOX_R_SQUARED 0.893, PBLUC_HILL_SLOPE 2.99, PBLUC_R_SQUARED 0.681, read-out: LUCIFERASE INFECTION ASSAY - IC50",3.12 µM
same,IC90,,6.51 µM
COc1ccc(OC)c(CCNc2nc3cnc(-c4ccc(OC)nc4)cc3n2C)c1,IC50,"HEPG2TOX_HILL_SLOPE 1.95, HEPG2TOX_R_SQUARED 0.873, PBLUC_HILL_SLOPE 2.34, PBLUC_R_SQUARED 0.799, read-out: LUCIFERASE INFECTION ASSAY - IC50",1.11 µM
same,IC90,,2.85 µM
O=S(=O)(c1ccc2oc(Nc3ccc(-c4nc5ccccc5[nH]4)cc3)nc2c1)N1CCOCC1,IC50,"HEPG2TOX_HILL_SLOPE 1.96, HEPG2TOX_R_SQUARED 0.85, PBLUC_HILL_SLOPE 1.98, 8.82, PBLUC_R_SQUARED 0.398, 0.470, read-out: LUCIFERASE INFECTION ASSAY - IC50",1.54 µM
same,IC90,,3.62 µM
CCOc1cccc(-c2cn3c(-c4ccc5ncccc5c4)cnc3cn2)c1,IC50,"HEPG2TOX_HILL_SLOPE 1.97, HEPG2TOX_R_SQUARED 0.663, PBLUC_HILL_SLOPE 2.12, PBLUC_R_SQUARED 0.862, read-out: LUCIFERASE INFECTION ASSAY - IC50",0.0341 µM
same,IC90,,0.0959 µM
O=C(NCc1ccc(-c2cccs2)s1)c1ccc([N+](=O)[O-])o1,IC50,"HEPG2TOX_HILL_SLOPE 1.96, HEPG2TOX_R_SQUARED 0.945, PBLUC_HILL_SLOPE 1.03, PBLUC_R_SQUARED 0.326, read-out: LUCIFERASE INFECTION ASSAY - IC50",> 9.87 µM
same,IC90,,> 9.87 µM
C=CCN(C(=O)CCc1ccc(S(=O)(=O)N2CCCCCC2)cc1)c1nc2c(s1)CCCC2,IC50,"HEPG2TOX_HILL_SLOPE 1.95, HEPG2TOX_R_SQUARED 0.844, PBLUC_HILL_SLOPE 2.62, PBLUC_R_SQUARED 0.304, read-out: LUCIFERASE INFECTION ASSAY - IC50",8.2 µM
same,IC90,,> 10 µM
O=S(=O)(c1ccccc1NCc1ccnc(N2CCCC2)c1)C(F)(F)F,IC50,"HEPG2TOX_HILL_SLOPE 1.99, HEPG2TOX_R_SQUARED 0.873, PBLUC_HILL_SLOPE 3.99, PBLUC_R_SQUARED 0.0495, read-out: LUCIFERASE INFECTION ASSAY - IC50",6.48 µM
same,IC90,,> 10 µM
Cc1cn2c(CNCCc3ccc(N4CCCCC4)cc3)c(C)nc2s1,IC50,"HEPG2TOX_HILL_SLOPE 1.99, HEPG2TOX_R_SQUARED 0.618, PBLUC_HILL_SLOPE 85.2, PBLUC_R_SQUARED 0.531, read-out: LUCIFERASE INFECTION ASSAY - IC50",0.591 µM
same,IC90,,0.606 µM
COc1ccc(NS(=O)(=O)c2cccc(C(=O)Nc3ncc(C)s3)c2)cc1Br,IC50,"HEPG2TOX_HILL_SLOPE 1.95, HEPG2TOX_R_SQUARED 0.754, PBLUC_HILL_SLOPE 9.08, 8.50, PBLUC_R_SQUARED 0.373, 0.408, read-out: LUCIFERASE INFECTION ASSAY - IC50",5.79 µM
same,IC90,,4.59 µM
CC(C)NC(=O)c1c(NC(=O)c2ccc(C#N)cc2)nc2ccccn12,IC50,"HEPG2TOX_HILL_SLOPE 1.96, HEPG2TOX_R_SQUARED 0.946, PBLUC_HILL_SLOPE 9.83, PBLUC_R_SQUARED 0.197, read-out: LUCIFERASE INFECTION ASSAY - IC50",8.07 µM
same,IC90,,> 9.5 µM
Cc1ccccc1-c1noc(CN(C2CCCc3ccccc32)S(C)(=O)=O)n1 (configuration not stated),IC50,"HEPG2TOX_HILL_SLOPE 2, HEPG2TOX_R_SQUARED 0.927, PBLUC_HILL_SLOPE 1.37, PBLUC_R_SQUARED 0.678, read-out: LUCIFERASE INFECTION ASSAY - IC50",1.93 µM
same,IC90,,> 8.3 µM
COc1ccc(-c2cnc3c(Nc4cccc(OC(F)(F)C(F)F)c4)nccn23)cc1,IC50,"HEPG2TOX_HILL_SLOPE 1.95, HEPG2TOX_R_SQUARED 0.977, PBLUC_HILL_SLOPE 27.6, PBLUC_R_SQUARED 0.693, read-out: LUCIFERASE INFECTION ASSAY - IC50",2.47 µM
same,IC90,,2.67 µM
Cc1nc(NC(=O)CCc2c[nH]c3ccccc23)sc1-c1ccccn1,IC50,"HEPG2TOX_HILL_SLOPE 2, HEPG2TOX_R_SQUARED 0.799, PBLUC_HILL_SLOPE 14.5, PBLUC_R_SQUARED 0.715, read-out: LUCIFERASE INFECTION ASSAY - IC50",3.02 µM
same,IC90,,3.51 µM
N#Cc1ccc(OCc2nc3ccccc3n2C(F)F)cc1,IC50,"HEPG2TOX_HILL_SLOPE 1.97, HEPG2TOX_R_SQUARED 0.844, PBLUC_HILL_SLOPE 169, PBLUC_R_SQUARED 0.414, read-out: LUCIFERASE INFECTION ASSAY - IC50",4.36 µM
same,IC90,,4.42 µM
CC(C)(C)c1ccc(OCc2ccc(C(=O)N3CCN(CC(=O)NC4CC4)CC3)cc2)cc1,IC50,"HEPG2TOX_HILL_SLOPE 1.95, HEPG2TOX_R_SQUARED 0.886, PBLUC_HILL_SLOPE 11.8, PBLUC_R_SQUARED 0.642, read-out: LUCIFERASE INFECTION ASSAY - IC50",8.43 µM
same,IC90,,> 10 µM
Cc1cc(C(=O)OCc2ccc(-n3nc(C)cc3C)cc2)c2ccccc2n1,IC50,"HEPG2TOX_HILL_SLOPE 1.96, HEPG2TOX_R_SQUARED 0.0908, PBLUC_HILL_SLOPE 15.9, PBLUC_R_SQUARED 0.28, read-out: LUCIFERASE INFECTION ASSAY - IC50",3.66 µM
same,IC90,,4.21 µM
CCOc1ccc(C(=O)NNC(=O)c2cc(Cl)ccc2O)cc1,IC50,"HEPG2TOX_HILL_SLOPE 1.98, HEPG2TOX_R_SQUARED 0.918, PBLUC_HILL_SLOPE 3.04, PBLUC_R_SQUARED 0.138, read-out: LUCIFERASE INFECTION ASSAY - IC50",7.76 µM
same,IC90,,> 10 µM
Cc1cccc(Nc2ncc(C(=O)c3cccc(-c4ccncc4)c3)[nH]2)c1,IC50,"HEPG2TOX_HILL_SLOPE 1.98, HEPG2TOX_R_SQUARED 0.759, PBLUC_HILL_SLOPE 4.11, PBLUC_R_SQUARED 0.608, read-out: LUCIFERASE INFECTION ASSAY - IC50",1.18 µM
same,IC90,,2.02 µM
O=C(Nc1ccc(-n2cnc3ccccc32)cc1)c1ccc(NC(=O)C2CC2)cc1,IC50,"HEPG2TOX_HILL_SLOPE 1.98, HEPG2TOX_R_SQUARED 0.988, PBLUC_HILL_SLOPE 3.86, PBLUC_R_SQUARED 0.781, read-out: LUCIFERASE INFECTION ASSAY - IC50",6.59 µM
same,IC90,,> 10 µM
CCCCC(=O)NNC(=O)c1nn(-c2ccccc2)cc1O,IC50,"HEPG2TOX_HILL_SLOPE 1.96, 5.56, HEPG2TOX_R_SQUARED 0.938, 0.275, PBLUC_HILL_SLOPE 4.09, 13.0, PBLUC_R_SQUARED 0.105, 0.390, read-out: LUCIFERASE INFECTION ASSAY - IC50",4.4 µM
same,IC90,,6.61 µM
N#Cc1cc(-c2ccccc2)nnc1NCc1ccc(Cl)cc1,IC50,"HEPG2TOX_HILL_SLOPE 2, HEPG2TOX_R_SQUARED 0.904, PBLUC_HILL_SLOPE 2.36, PBLUC_R_SQUARED 0.485, read-out: LUCIFERASE INFECTION ASSAY - IC50",6.28 µM
same,IC90,,> 10.3 µM
OCc1ccc(-c2cnc3ccc(-c4ccc(F)cc4)nn23)cc1,IC50,"HEPG2TOX_HILL_SLOPE 1.97, HEPG2TOX_R_SQUARED 0.914, PBLUC_HILL_SLOPE 1.12, PBLUC_R_SQUARED 0.781, read-out: LUCIFERASE INFECTION ASSAY - IC50",0.738 µM
same,IC90,,5.21 µM
Cc1cc(N(C)Cc2ccccc2Br)nc(N)n1,IC50,"HEPG2TOX_HILL_SLOPE 1.99, HEPG2TOX_R_SQUARED 0.929, PBLUC_HILL_SLOPE 3.52, PBLUC_R_SQUARED 0.797, read-out: LUCIFERASE INFECTION ASSAY - IC50",1.23 µM
same,IC90,,2.29 µM
COc1ccc(-c2cc3c(cn2)nc(NCCc2cc(OC)ccc2OC)n3C)c(C)c1,IC50,"HEPG2TOX_HILL_SLOPE 1.97, HEPG2TOX_R_SQUARED 0.898, PBLUC_HILL_SLOPE 1.3, PBLUC_R_SQUARED 0.74, read-out: LUCIFERASE INFECTION ASSAY - IC50",0.669 µM
same,IC90,,3.63 µM
